# Assays:
# recombinant mouse APA = target: T1, recombinant mouse APA (Mus musculus, UniProt P16406); assay: Measurement of APA activity in vitro (GluβNa hydrolysis, microplate); assay type: biochemical; conditions: 200 μM Glu-βNa, pH 7.4, 37° C., read-out: In vitro inhibition of aminopeptidase A, IC50 classification
# T1 sequence (P16406 1-945): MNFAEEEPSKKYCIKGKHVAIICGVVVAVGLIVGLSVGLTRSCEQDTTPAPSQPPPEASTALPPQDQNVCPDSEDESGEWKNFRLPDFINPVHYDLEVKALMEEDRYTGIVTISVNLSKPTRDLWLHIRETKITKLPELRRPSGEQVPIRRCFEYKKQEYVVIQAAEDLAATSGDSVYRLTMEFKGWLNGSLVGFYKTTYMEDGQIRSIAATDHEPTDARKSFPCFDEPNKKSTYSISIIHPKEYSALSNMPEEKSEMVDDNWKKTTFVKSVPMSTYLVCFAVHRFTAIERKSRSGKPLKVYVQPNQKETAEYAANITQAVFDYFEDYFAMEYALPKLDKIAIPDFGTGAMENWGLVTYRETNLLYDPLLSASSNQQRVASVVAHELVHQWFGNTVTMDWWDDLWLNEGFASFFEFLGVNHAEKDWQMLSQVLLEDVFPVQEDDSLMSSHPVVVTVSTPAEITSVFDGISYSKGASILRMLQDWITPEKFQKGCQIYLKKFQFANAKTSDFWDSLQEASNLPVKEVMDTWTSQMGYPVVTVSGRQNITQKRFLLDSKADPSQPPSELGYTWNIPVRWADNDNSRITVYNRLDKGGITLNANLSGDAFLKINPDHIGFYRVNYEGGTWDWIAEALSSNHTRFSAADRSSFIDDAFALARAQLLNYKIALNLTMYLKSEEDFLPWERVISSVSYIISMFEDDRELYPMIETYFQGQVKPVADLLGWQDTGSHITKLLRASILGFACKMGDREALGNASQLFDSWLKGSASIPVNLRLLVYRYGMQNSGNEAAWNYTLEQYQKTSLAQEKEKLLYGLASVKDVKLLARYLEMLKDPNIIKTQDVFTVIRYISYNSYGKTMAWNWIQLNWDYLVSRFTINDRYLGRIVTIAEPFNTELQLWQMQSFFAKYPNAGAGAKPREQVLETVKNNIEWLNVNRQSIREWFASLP
# Text: In vitro, in the presence of calcium ions, APA hydrolyses a synthetic substrate α-L-glutamyl-β-naphthylamide (GluβNa) to glutamate and β-naphthylamine (βNa). A diazotation reaction in acidic medium makes it possible to reveal the β-naphthylamine by formation of a violet-coloured complex: spectrophotometric measurement then makes it possible to know the amount of complex formed and, by reference to a standard curve produced with increasing concentrations of β-naphthylamine, to deduce the enzymatic activity of the sample.
# The reaction takes place at pH 7.4 in 50 mM tris-HCl buffer, in the presence of calcium (4 mM CaCl2)); recombinant mouse APA is incubated at 37° C. in the presence of the substrate (200 μM Glu-βNa) and in the presence or absence of various concentrations of the inhibitor to be tested, in a final volume of 100 μL. The reaction is stopped by adding 10 μL of 3N HCl. A standard curve of β-naphthylamine was prepared in parallel by diazotizing increasing concentrations (up to 0.2 mM) of 2-naphthylamine in 0.1 N HCl.
# The following are added to each well: 25 μL of sodium nitrite (NaNO2) (mix, wait 5 minutes at room temperature), 50 μL of ammonium sulfamate (mix, wait 5 minutes at room temperature), then add 25 μL of N-(1-naphthyl) ethylenediamine dihydrochloride (mix, wait for stabilization of the violet colour for approximately 30 minutes at 37° C.).
# The absorbance is then measured at 540 nm.
# brain APA [1] = conditions: central infusions, cited from earlier work
# brain APA [2] = target: T2, brain APA (Mus musculus, UniProt P16406); assay: Measurement of brain APA activity ex vivo after i.v. administration; assay type: in vivo, mice; conditions: for brain APA activity: 10 min
# T2 construct: from tissue; host or cells: mouse brain homogenate
# T2 sequence (P16406 1-945): T1 sequence (P16406 1-945)
# Protocol: Brain APA activity was determined as described above.
# In vivo, in mice (male, 18-20 g Charles River), Examples 22 and 52 were administered i.v. (5 mg/kg and 4 mg/kg respectively, in a volume of 200 μL). For each condition, five mice were used. Mice were sacrified 10, 30, 60, 120 and 180 min after the injection. The brains were immediately removed and homogenized by sonication in 10 vol of ice-cold 50 mM Tris-HCl buffer (pH 7.4). APA enzymatic activity was measured on brain homogenates. For this purpose, aliquots of the tissue homogenate (16 μL) were incubated for 30 min at 37° C. with 200 μM of GluβNA, 4 mM CaCl2, and 1 μM bestatin inhibitor, with or without 5 μM EC33, in a total volume of 100 μL of 50 mM Tris-HCl buffer (pH 7.4). Then the assay was pursued as described above.
# [3] = acute oral, 15 to 150 mg/kg, conscious hypertensive DOCA-salt rats and SHR rats; cited from earlier work
structure (smiles),measurement,setting,value
"N[C@H](CS)CCS(=O)(=O)O [EC33, (S)-3 amino-4-mercapto-butylsulfonic acid]",IC50,recombinant mouse APA,300 to 10000 nM
same,effect on BP,brain APA [1]; several experimental models of hypertension,lower BP
same,effect on brain APA activity,brain APA [1],inhibit brain APA activity
"NC(CCC(=O)O)P(=O)(O)CCc1ccccc1 (centres unmarked) [Example 22, 4-amino-4-[hydroxy(2-phenylethyl)phosphoryl]butanoic acid]",IC50,recombinant mouse APA,< 30 nM
same,brain APA activity maximally decreased by,"brain APA [2]; 5 mg/kg i.v., conscious mice, from 10 min until 60 min",47%
same,brain APA activity,"brain APA [2]; 5 mg/kg i.v., mice",37.5±3.3 nmol of GluNA hydrolyzed per mg of protein per h
same,brain APA activity time course,"brain APA [2]; 5 mg/kg i.v., mice, after 120 min",return to basal values
same,ability to cross the blood brain barrier and enter the brain,"brain APA [2]; 5 mg/kg i.v., mice, by inhibition of brain APA activity",cross the blood brain barrier (BBB) and to enter the brain
"COc1ccccc1CCP(=O)(O)[C@@H](N)CCC(=O)O.Cl [Example 52, (1R)-3-carboxy-1-{hydroxy[2-(2-methoxyphenyl)ethyl]phosphoryl} propan-1-aminium chloride]",IC50,recombinant mouse APA,< 30 nM
same,brain APA activity,"brain APA [2]; 4 mg/kg i.v., mice",12.0±4.0 nmol of GluNA hydrolyzed per mg of protein per h
same,ability to cross the BBB and enter the brain,"brain APA [2]; 4 mg/kg i.v., mice, by inhibition of brain APA activity",cross the BBB and to enter the brain
same,inhibition at 4 mg/kg,"brain APA [2]; mouse, iv, 4 mg/kg i.v., mice, 120 min after the injection, read-out: brain APA activity inhibited by",35%
"NC(CCS(=O)(=O)O)P(=O)(O)Cc1cc(-c2ccccc2)no1 (centres unmarked) [Example 65, 3-amino-3-{hydroxy[(3-phenyl-1,2-oxazol-5-yl)methyl]phosphoryl}propane-1-sulfonic acid]",IC50,recombinant mouse APA,300 to 10000 nM
"NC(CCS(=O)(=O)O)P(=O)(O)Cc1cc(-c2ccccc2)on1 (centres unmarked) [Example 66, 3-amino-3-{hydroxy[(5-phenyl-1,2-oxazol-3-yl)methyl]phosphoryl}propane-1-sulfonic acid]",IC50,recombinant mouse APA,300 to 10000 nM
"NC(CCCS(=O)(=O)O)P(=O)(O)CCc1ccccc1 (centres unmarked) [Example 67, 4-amino-4-[hydroxy(2-phenylethyl)phosphoryl]butane-1-sulfonic acid]",IC50,recombinant mouse APA,30 to 300 nM
"NC(CCP(=O)(O)O)P(=O)(O)CCc1ccccc1 (centres unmarked) [Example 68, {3-amino-3-[hydroxy(2-phenylethyl)phosphoryl]propyl}phosphonic acid]",IC50,recombinant mouse APA,300 to 10000 nM
N[C@@H](CCS(=O)(=O)O)CSSC[C@@H](N)CCS(=O)(=O)O [RB150],effect on BP,[3],dose-dependent decrease in BP
